According to PMC5701947, “β1-Adrenergic Receptor Contains Multiple IA^k and IE^k Binding Epitopes That Induce T Cell Responses with Varying Degrees of Autoimmune Myocarditis in A/J Mice” (Frontiers in Immunology, 2017):
No end group written: not given here.

How the values were obtained:
[1] = test system: Balb/c mice; details: cited from earlier work
Description: It has been proposed that acetylated peptides can be prevented from intracellular degradation leading to their stable binding to MHC molecules ([29], [50]). Thus, we decided to use the acetylated peptides, and focused only the peptides that were located within the stretch of β1AR 171–230 (Table 1).

[2] = test system: T cells (lymph node cells/splenocytes from immunized animals); assay: T cell proliferation assay ([3H]-thymidine); format: cell-based, A/J mice; details: for T cell responses: animals immunized with pool IV, fold vs medium control
Outline: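 Lymph node cells and splenocytes from immunized animals, or magnetically enriched CD4/CD8 T cells (~95% pure) plus peptide-loaded irradiated syngeneic naive splenocytes (1:1), stimulated at ~5 × 10^6 cells/ml with immunizing peptide (0–100 µg/ml) for 2 days. Pulsed with [3H]-thymidine for 16 h; proliferation read as cpm.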

[3] = test system: CD4 T cells; assay: T cell proliferation assay, enriched CD4 T cells; format: cell-based, A/J mice; details: CD4 T cells ~95% purity from immunized mice; peptide-loaded irradiated splenocytes 1:1; Figure S3B
Experimental: (§1) At termination, lymph nodes (maxillary, mandibular, axillary, inguinal, and popliteal) and spleens were harvested from immunized animals to prepare single cell suspensions. Similarly, splenocytes were prepared from naive animals. After lysing the erythrocytes and washing, cell pellets were suspended in RPMI medium containing 10% fetal bovine serum, 1 mM sodium pyruvate, 4 mM L-glutamine, 1 × each of non-essential amino acids and vitamin mixture, and 100 U/ml penicillin–streptomycin (Lonza, Walkersville, MD, USA; hereafter called growth medium). In some experiments, CD4 T cells and CD8 T cells were enriched to a purity of ~95% by negative selection based on magnetic separation using IMAG (BD Biosciences, San Jose, CA, USA) ([31]). To stimulate CD4 and CD8 T cells, syngeneic naive irradiated splenocytes loaded with peptides were used as antigen-presenting cells at a ratio of 1:1. Cells were stimulated at a density of ~5 × 10^6 cells/ml in triplicates with or without the immunizing peptides (0–100 µg/ml) in growth medium. RNase 43–56 or HEL 46–61 were used as irrelevant controls. After 2 days, cells were pulsed with tritiated ^3[H]-thymidine (1 μCi/well; MP Biomedicals, Santa Ana, CA, USA), and 16 h later, proliferative responses were measured as counts per minute (cpm) using a Wallac liquid scintillation counter (Perkin Elmer, Waltham, MA, USA) ([26], [28], [30]).

[4] = test system: CD8 T cells; assay: T cell proliferation assay, enriched CD8 T cells; format: cell-based, A/J mice; details: CD8 T cells ~95% purity from immunized mice; peptide-loaded irradiated splenocytes 1:1; Figure S3B
Experimental: as §1

[5] = test system: CD4 T cells; assay: IE^k dextramer staining of CD4 T cells; format: cell-based, A/J mice; details: IE^k dextramers; cells from β1ARAc 181–200-immunized mice; P = 0.028 vs control dextramer; Figure 4B
Description: To enumerate the frequencies of antigen-specific CD4 T cells, we created IA^k dextramers for β1AR 171-190 and β1AR 211–230, and IE^k dextramers for β1AR 181–200. To create IA^k dextramers, the nucleotide sequence for β1AR 171–190 ([…]) and β1AR 211–230 ([…]) was inserted into the IA^k-β construct that we had described previously ([35], [39]), whereas IA^k/RNase 43–56 (control) dextramers were readily available in our laboratory ([30], [35], [40]). The soluble, IA^k/β1AR 171–190 and IA^k/β1AR 211–230 molecules were expressed in sf9 cells using baculovirus expression system. After purifying through anti-IA^k-affinity column, the IA^k/β1AR 171–190 and IA^k/β1AR 211–230 monomers were biotinylated and dextramers were derived using streptavidin (SA)/fluorophore-conjugated dextran molecules as described previously ([35], [39]). […]
To stain with dextramers, lymphocytes obtained from lymph nodes and spleens from immunized animals were stimulated with the immunizing peptides namely, β1ARAc 171–190, β1ARAc 181–200, and β1ARAc 211–230 (20 µg/ml) for 2 days and growth medium containing interleukin (IL)-2 (IL-2 medium) was then added. […] After washing, and acquisition by flow cytometry, percent dextramer^+ (dext^+) cells were analyzed within the live cells (7-AAD^−) using Flow Jo software ([34], [35], [39]).

[6] = test system: A/J mice (hearts); assay: Induction of myocarditis by active immunization with peptides (histology); format: in vivo; details: for Myocarditis incidence / Myocarditis incidence (animals with disease/total) / Inflammatory foci: individual non-acetylated peptide, 100 µg per animal; for Myocarditis incidence / Myocarditis incidence (animals with disease/total): CFA/PT, days 0 and 7, day 21; for Inflammatory foci: mean ± SEM of myocarditic animals
[7] = test system: lymph node cell (LNC) cultures; assay: Cytokine secretion (bead array); format: cell-based, A/J mice; details: LNC supernatants, 50–100 µg/ml, day 3; P = 0.06
Experimental: Supernatants were obtained from lymph node cell (LNC) cultures prepared from immunized animals that were stimulated with or without acetylated or non-acetylated, β1AR 171–190, β1AR 181–200, and β1AR 211–230 and RNase 43–56/HEL 46–61 (controls) (50–100 µg/ml) on day 3 poststimulations. Cytokine analysis was performed using beads conjugated with capture and detection Abs with the standard curves being derived from serial dilutions of mouse cytokine standard mixtures, consisting of IL-2, interferon (IFN)-γ, IL-4, IL-6, IL-10, IL-17A, and tumor necrosis factor (TNF)-α as recommended by the manufacturer’s guidelines (BD Biosciences). Briefly, capture bead/cytokine antibody conjugates were first prepared, and the mixtures were added to a tube containing diluted standards or test samples, followed by addition of detection antibodies. After acquiring by flow cytometry, FCAP Array Software was used to analyze the data (BD Biosciences) ([26], [30]).

[8] = test system: antigen-primed T cells; assay: Cytokine-producing cells after Th1/Th17 polarization (flow cytometry); format: cell-based, A/J mice; details: Figure S4
Experimental: Lymph node cells obtained from animals immunized with individual peptides, β1ARAc 171–190, β1ARAc 181–200, or β1ARAc 211–230 on day 21 postimmunizations were stimulated with the corresponding immunizing peptides (20 µg/ml) for 2 days followed by resting in IL-2 medium. In a separate set of experiments, animals were immunized with a mixture of β1ARAc 171–190, 181–200, and 211–230 peptides and their lymphocytes were stimulated with the immunizing peptides individually (50 µg/ml) for 2 days and then IL-2 medium was added. On day 3, one of the two aliquots of cells were exposed to a mixture of Th1- and Th17-polarizing conditions by adding recombinant mouse IL-12 (20 ng/ml), IL-1β (30 ng/ml), IL-6 (30 ng/ml), IL-23 (50 ng/ml) (all cytokines were procured from BioLegend, San Diego, CA, USA), and human transforming growth factor-β1 (10 ng/ml; eBioscience, San Diego, CA, USA) as reported previously ([41]–[44]), and the other was maintained in IL-2 medium alone. Flow cytometrically, we analyzed the percentages of cytokine-producing cells on days 3 and 6 following polarization as we have described previously ([28], [31], [40]). Viable cells harvested on days 8–10 were administered through i.p., or retro-orbital sinus (4–14 × 10^6 cells/animal) into naive mice primed with lipopolysaccharide (LPS, 25 µg/mouse i.p., day −4 and day 0). […]

Row | Substance | T cell responses ([2]; 10 μg/ml) [fold] | T cell responses ([2]; 100 μg/ml) [fold] | Myocarditis incidence [6] [%] | Myocarditis incidence (animals with disease/total) [6] | Inflammatory foci [6] | IL-17A production (in words) [7] | also measured
1 | Myhc 614–643: cardiac myosin heavy chain-α 614–643 (Ac-SLKLMATLFSTYASADTGDSGKGKGGKKKG; UniProt Q02566 614-643, looked up, fragment) |  |  |  |  |  |  | Myocarditis by N-terminally acetylated peptide (in words) [1]: can induce significant myocarditis
2 | YNTDGSTDYGILQINSR [HEL 46–61] |  |  |  |  |  |  | T cell responses (in words) ([2]; proliferation, 0–100 µg/ml, 2 days + 16 h [3H]-thymidine, cpm): lacking; CD4 T cell proliferative response (in words) [3]: lacking; CD8 T cell proliferative response (in words) [4]: lacking
3 | FAGLKKANERADLIAYLKQATK [MCC 82–103] |  |  |  |  |  |  | percent dext^+ CD4^high T cells [5]: 0.33 ± 0.03%
4 | TRARARALVCTVWAISALVS [β1AR 171-190, 20-mer of mouse β1AR peptide library] | 2.68 | 5.13 | 0 | 0/5 | 0 | tended to be elevated | 
5 | TVWAISALVSFLPILMHWWR [β1AR 181-200, 20-mer of mouse β1AR peptide library] | 1.70 | 2.30 | 20 | 1/5 | 2 | tended to be elevated | Disease severity (in words) ([6]; individual immunization, non-acetylated peptides): mild disease; Th1 cytokine-producing cells (in words) [8]: significantly enhanced
